Experimental data: patent US20140066498A1, “TRITERPENOID DERIVATIVES, BENZENOID DERIVATIVES, AND PHARMACEUTICAL COMPOSITIONS CONTAINING THE SAME” (National Cheng Kung University, priority 2010, published 2014)
Values after ≈ are worked out from the molar mass of the structure shown.

Assays:
KB (human cancer cell) = assay: Cytotoxicity assay against KB cells in vitro; type: cell-based; settings: NA@20 given for inactive
[1] = biological target: T1, nitric oxide synthase (NOS) (Mus musculus, UniProt P29477); assay: NOS activity: LPS-induced NO production in murine microglial cells (BV2); settings: read-out: IC50 (μM) in NOS; LPS-induced NO production in BV2 cells, 1-50 μM test drug; mean ± S.E.M.
T1 sequence (P29477 1-1144): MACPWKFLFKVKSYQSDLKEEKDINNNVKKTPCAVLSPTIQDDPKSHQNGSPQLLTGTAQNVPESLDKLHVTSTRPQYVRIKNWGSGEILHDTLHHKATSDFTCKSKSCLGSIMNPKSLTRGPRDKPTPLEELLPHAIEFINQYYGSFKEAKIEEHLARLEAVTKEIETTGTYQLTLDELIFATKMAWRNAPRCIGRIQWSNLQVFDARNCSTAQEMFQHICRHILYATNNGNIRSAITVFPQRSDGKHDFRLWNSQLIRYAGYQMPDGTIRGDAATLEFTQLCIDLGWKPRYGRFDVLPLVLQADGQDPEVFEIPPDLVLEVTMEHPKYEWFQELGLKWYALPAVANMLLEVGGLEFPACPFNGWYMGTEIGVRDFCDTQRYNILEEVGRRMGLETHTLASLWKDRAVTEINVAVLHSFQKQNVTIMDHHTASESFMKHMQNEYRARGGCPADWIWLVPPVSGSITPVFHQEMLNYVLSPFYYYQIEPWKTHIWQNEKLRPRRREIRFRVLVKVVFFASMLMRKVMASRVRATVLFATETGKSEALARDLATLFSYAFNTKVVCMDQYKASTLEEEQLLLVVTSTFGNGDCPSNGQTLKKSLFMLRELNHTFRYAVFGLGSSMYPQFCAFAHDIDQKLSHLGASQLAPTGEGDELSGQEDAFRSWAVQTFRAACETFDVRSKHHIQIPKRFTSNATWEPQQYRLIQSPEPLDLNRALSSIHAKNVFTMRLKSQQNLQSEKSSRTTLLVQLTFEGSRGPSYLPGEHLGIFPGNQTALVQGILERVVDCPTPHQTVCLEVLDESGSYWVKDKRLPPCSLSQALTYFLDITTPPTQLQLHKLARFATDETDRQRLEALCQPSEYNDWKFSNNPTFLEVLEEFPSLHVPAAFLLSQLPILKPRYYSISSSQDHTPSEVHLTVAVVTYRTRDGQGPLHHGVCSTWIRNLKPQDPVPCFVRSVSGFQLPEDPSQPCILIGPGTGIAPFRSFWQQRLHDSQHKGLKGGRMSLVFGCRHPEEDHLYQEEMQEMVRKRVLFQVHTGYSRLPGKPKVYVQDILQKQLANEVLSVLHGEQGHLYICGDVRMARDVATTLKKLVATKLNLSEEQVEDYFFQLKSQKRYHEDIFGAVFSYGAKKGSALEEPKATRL
Method: Microglial cell culture and measurements of mitric oxide (NO). The murine microglial cell line (BV2) was cultured, and the production of NO was measured by the methods as previously described (Wang, Y. H.; Wang, W. Y.; Chang, C. C.; Liou, K. T.; Sung, Y. J.; Liao, J. F.; Chen, C. F.; Chang, S.; Hou, Y. C.; Chou, Y. C.; Shen, Y. C. J. Biomed. Sci. 2006, 13, 127-141).

NADPH oxidase (NOX) [2] = biological target: NADPH oxidase (NOX) (Mus musculus, UniProt Q61093); type: biochemical, murine; settings: ROS production triggered with NADPH (200 μM), 1-50 μM test drug, BV2 cell lysate; mean ± S.E.M., 3-6 experiments; read-out: IC50 (μM) in NOX activity from BV2 cell lysate
[3] = test system: KB-VIN (multidrug-resistant strain); assay: Cytotoxicity assay against KB-VIN cells in vitro; type: cell-based, human
[4] = test system: Hela (human cervical epitheloid carcinoma); assay: MTT cytotoxicity assay, Hela; type: cell-based; settings: Hela cell line
Method: (§1) Compounds II-7-II-9, II-13, II-14, II-20, II-21, II-25-II-33, and II-36 were assayed for cytotoxic activity against Doay (human medulloblastoma), Hep2 (human laryngeal carcinoma), MCF-7 (human breast adenocarcinoma), and Hela (human cervical epitheloid carcinoma) cell lines, using a MTT assay method.

[5] = test system: Hep2 (human laryngeal carcinoma); assay: MTT cytotoxicity assay, Hep2; type: cell-based; settings: Hep2 cell line
Method: as §1

NADPH oxidase (NOX) [6] = biological target: NADPH oxidase (NOX) (Homo sapiens, UniProt P04839); type: cell-based; settings: ROS production triggered with fMLP (2 μM), 1-50 μM test drug, peripheral human neutrophils; mean ± S.E.M.; read-out: IC50 (μM) in NOX fMLP-induced NOX activation in PMN
[7] = test system: Daoy (human medulloblastoma); assay: MTT cytotoxicity assay, Daoy; type: cell-based; settings: Daoy cell line
Method: as §1

[8] = test system: MCF-7 (human breast adenocarcinoma); assay: MTT cytotoxicity assay, MCF-7; type: cell-based; settings: MCF-7 cell line
Method: as §1

[9] = test system: P-388 murine leukemia cells; settings: in vitro, previous studies; cited from earlier work

| Compound | EC50 (KB (human cancer cell)) [µM] | IC50 [1] [µM] | IC50 (NADPH oxidase (NOX) [2]) [µM] | EC50 [3] [µM] | ED50 (μg/mL) Hela [4] | ED50 (μg/mL) Hep2 [5] | IC50 (NADPH oxidase (NOX) [6]) [µM] | ED50 (μg/mL) Daoy [7] [µg/mL] | ED50 (μg/mL) MCF-7 [8] [µg/mL] | cytotoxicity against P-388 murine leukemia cells [9] | EC50 (μM) KB (KB (human cancer cell)) | EC50 (μM) KB-VIN [3] |
| --- | --- | --- | --- | --- | --- | --- | --- | --- | --- | --- | --- | --- |
| C=C(CC[C@@H](C)[C@H]1CC[C@H]2C3=C(C(=O)[C@H](O)[C@]12C)[C@@]1(C)CC[C@@H](O)[C@@H](C)[C@@H]1CC3=O)C(C)C(=O)O (stereo partly drawn) [Compound I-13, zhankuic acid C] | 15.5 | 16.2 ± 0.9 | 40.3 ± 3.5 | 6.4 | – | – | – | – | – | – | – | – |
| C=C(CC[C@@H](C)[C@H]1CC[C@H]2C3=C(C(=O)C[C@]12C)[C@@]1(C)CCC(=O)[C@@H](C)[C@@H]1CC3)C(C)C(=O)O (stereo partly drawn) [Compound I-15, antcin A] | 4.9 | 4.1 ± 0.5 | 45.9 ± 7.9 | 10 | — (ED50 > 20 μg/mL) | — (ED50 > 20 μg/mL) | 29.2 ± 6.7 | 13.2 (≈ 29 µM) | 13.3 (≈ 29.3 µM) | – | – | – |
| C=C(C)C#Cc1c(OC)cc(OC)c(OC)c1C [II-9, antrocamphin A] | – | 7.2 ± 1 | 50.1 ± 3.3 | – | 6.9 µg/mL (≈ 28 µM) | 10.5 µg/mL (≈ 42.6 µM) | 15.1 ± 4.1 | 5.9 (≈ 24 µM) | 3.4 (≈ 13.8 µM) | – | – | – |
| C=C(CC[C@@H](C)[C@H]1CC[C@H]2C3=C(C(=O)C[C@]12C)[C@@]1(C)CCC(=O)[C@@H](C)[C@@H]1CC3=O)C(C)C(=O)O (stereo partly drawn) [zhankuic acid A] | – | – | – | – | – | – | – | – | – | significant cytotoxicity | – | – |
| C=C(CC[C@@H](C)[C@H]1CC[C@H]2C3=C(C(=O)[C@H](O)[C@]12C)[C@@]1(C)CC[C@@H](O)[C@@H](C)[C@@H]1CC3=O)C(C)C(=O)O (stereo partly drawn) [zhankuic acid C] | – | – | – | – | – | – | – | – | – | significant cytotoxicity | – | – |
| methyl antcinate H [Compound I-18] | – | 2.5 | 16 ± 8.1 | – | – | – | 18.1 ± 5.9 | – | – | – | NA@20 | NA@20 |
